{
  "source": "paper PMC11510666",
  "about": "“Thiazolidinedione-Conjugated Lupeol Derivatives as Potent Anticancer Agents Through a Mitochondria-Mediated Apoptotic Pathway” (Molecules, 2024)",
  "key": {"[1]": {"system": "human lung cancer A549", "assay": "MTT antiproliferative assay, A549", "type": "cell-based", "details": "48 h, mean ± SD, three independent experiments", "description": "(§1) These cell lines were cultured in Dulbecco's Modified Eagle Medium containing 10% (v/v) fetal bovine serum (FBS, Wisent) and 1% (v/v) Penicillin-Streptomycin Solution mixture (Beyotime, Shanghai, China) at 37 °C under 5% CO2. An MTT assay evaluated the cytotoxicity of lupeol derivatives toward the A549, MCF-7, HepG2, and LO2 cell lines. The cells were inoculated into 96-well plates (3 × 10^3 cells/well) and cultured for 24 h at 37 °C in 5% CO2. After that, a gradient concentration of the test drug was added to continue the incubation for 48 h. Subsequently, the MTT solution continued to incubate with the cells for 4 h. Afterward, the upper waste layer was discarded, and DMSO was added ([…], Tianjin, China). After the formazan completely dissolved, the absorbance of each well at 490 nm was measured with a microplate reader. The mean values were derived from three independent experiments."}, "[2]": {"system": "human breast cancer MCF-7", "assay": "MTT antiproliferative assay, MCF-7", "type": "cell-based", "details": "48 h, mean ± SD, three independent experiments", "description": "as §1"}, "[3]": {"system": "human hepatocarcinoma HepG2", "assay": "MTT antiproliferative assay, HepG2", "type": "cell-based", "details": "for SI (selectivity index): IC50 values on L02 cells/HepG2 cells; for IC50: MTT, 48 h, mean ± SD, three independent experiments", "description": "as §1"}, "[4]": {"system": "human hepatic LO2 cells", "details": "for IC50: read-out: IC50 LO2, MTT, 48 h, mean ± SD, three independent experiments", "description": "as §1"}, "[5]": {"system": "HepG2 cells", "assay": "Annexin V-FITC/PI double staining, flow cytometry", "type": "cell-based, human", "details": "HepG2, 48 h, blank control 5.75%", "description": "(§2) To further evaluate compound 12i-induced HepG2 cell apoptosis, HepG2 cells were treated with this compound (at 0, 2, 4, and 8 μM), followed by staining with Acridine Orange/Ethidium bromide (AO/EB). […] Subsequently, we used Annexin V-FITC/PI double staining to characterize the effect of compound 12i based on the total apoptosis rate of HepG2 cells.\nHepG2 cells were inoculated into 6-well plates for 24 h, attached via cell adhesion, and then treated with 12i (0, 2, 4, and 8 μM) for 48 h. The cells were harvested and treated with Annexin V-FITC/PI staining solution, and the data were gathered using a flow cytometer (FACS Calibur, BD, Milpitas, CA, USA)."}, "[6]": {"system": "HepG2 cells", "details": "HepG2, 2, 4 and 8 μM, increasing concentration", "description": "as §2"}, "[7]": {"system": "HepG2 cells", "assay": "Mitochondrial membrane potential, JC-1 staining", "type": "cell-based, human", "from_the_text": "MMP depolarization is one of the landmark events of apoptosis. To investigate the impact of 12i on MMP depolarization in HepG2 cells, we used 5,5′,6,6,6,6′-tetrachloro-1,1′,3,3′-tetraethylioiodine carbocyan (JC-1) staining. When the mitochondrial membrane potential is high, JC-1 aggregates in the substrate to form a polymer (J-aggregates), which produces red fluorescence. When the mitochondrial membrane potential is low, JC-1 cannot accumulate in the mitochondrial matrix and exists as a monomer to produce green fluorescence.\nHepG2 cells were inoculated into 6-well plates for 24 h, attached via cell adhesion, and then treated with 12i (0, 2, 4, and 8 μM) for 48 h. The cells were cleaned with PBS and treated with JC-1 solution at 25 °C for 20 min, and the data were gathered using a flow cytometer.\nHepG2 cells were inoculated into 6-well plates for 24 h, attached via cell adhesion, and then treated with 12i (0, 2, 4, and 8 μM) for 48 h. The cells were cleaned with PBS and treated with JC-1 solution at 25 °C for 20 min, and the samples were collected and imaged using confocal microscopy."}, "[8]": {"system": "Bax, Bcl-2, cleaved caspase-7, cleaved caspase-9 in HepG2 cells", "details": "HepG2, 2, 4 and 8 μM, 48 h, Western blot", "description": "The GAPDH expression level was used as an internal control group.\n(§3) HepG2 cells were seeded in 6-well plates at a density of 1 × 10^6 overnight and treated with 12i (2, 4, and 8 μM) for 48 h. They were then washed twice with cooled PBS to remove the medium and lysed using a lysis buffer containing RIPA (Beyotime, Shanghai, China). The protein levels were quantified using a bicinchoninic acid protein assay kit (Beyotime, Shanghai, China). The proteins were separated via SDS-PAGE electrophoresis and transferred to PVDF membranes (Beyotime, Shanghai, China). After blocking with 5% skim milk for 2 h, the membranes were incubated with the primary antibody overnight at 4 °C, followed by 2 h with the specific secondary antibody. The antibodies were sourced commercially, including Bax (5023T, Cell Signaling Technology, Danvers, MA, USA), Bcl2 (3498T, Cell Signaling Technology, Danvers, MA, USA), Caspase-7 (12827T, Cell Signaling Technology, Danvers, MA, USA), Caspase-9 (9508T, Cell Signaling Technology, Danvers, MA, USA), Cleaved-Caspase-7 (8438T, Cell Signaling Technology, Danvers, MA, USA), Cleaved-Caspase-9 (7237T, Cell Signaling Technology, Danvers, MA, USA), GAPDH (2118T, Cell Signaling Technology, Danvers, MA, USA), PI3K (4249T, Cell Signaling Technology, Danvers, MA, USA), p-PI3K (4228T, Cell Signaling Technology, Danvers, MA, USA), AKT (4691T, Cell Signaling Technology, Danvers, MA, USA), p-AKT (4060T, Cell Signaling Technology, Danvers, MA, USA), mTOR (2972T, Cell Signaling Technology, Danvers, MA, USA). Immunoreactive bands were visualized using BeyoECL Plus (Beyotime, Shanghai, China) and scanned in a ChemiDoc MP Imaging System (Bio-Rad, Shanghai, China)."}, "[9]": {"system": "P-Akt, P-PI3K, P-mTOR in HepG2 cells", "details": "HepG2, 2, 4 and 8 μM, 48 h, Western blot, dose-dependent", "description": "Therefore, Western blotting was conducted to determine the expression of the key proteins Akt, P-Akt, PI3K, P-PI3K, mTOR, and P-mTOR.\nas §3"}, "[10]": {"system": "HepG2 cells", "details": "HepG2, 2, 4 and 8 μM, 48 h, DCFH-DA", "procedure": "After the cells were washed with PBS, the supernatant was removed and incubated with 500 μL of 10 μm/L DCFH-DA solution at 25 °C for 20 min, and the data were gathered using a flow cytometer.\nAfter the cells were washed with PBS, the supernatant was removed and incubated with 500 μL of 10 μm/L DCFH-DA solution at 25 °C for 20 min, and the samples were collected and imaged using confocal microscopy."}},
  "note": "Where “and” joins values, the source holds several entries; their conditions need not be identical. Equal values may be shown once.",
  "data": [
    {"smiles": "C=C(C)C1CCC2(C)CCC3(C)C(CCC4C5(C)CCC(OC(=O)NCCNC(=O)CN6C(=O)SC(=Cc7ccc(C(C)(C)C)cc7)C6=O)C(C)(C)C5CCC43C)C12", "note": "(centres unmarked) [Compound 12d, Lupeol-3-[(1-Ethylenediaminyl)-4]-5-(4-Tert-Butylphenyl)-2,4-Thiazolidinedione]", "values": [
      {"measurement": "IC50", "setting": "[1]", "value": "16.4 ± 0.43", "unit": "µM"},
      {"measurement": "IC50", "setting": "[2]", "value": "9.12 ± 0.24", "unit": "µM"},
      {"measurement": "SI (selectivity index)", "setting": "[3]", "value": 3.80},
      {"measurement": "IC50", "setting": "[3]", "value": "15.8 ± 0.68", "unit": "µM"},
      {"measurement": "IC50", "setting": "[4]", "value": "59.9 ± 1.03", "unit": "µM"}
    ]},
    {"smiles": "C=C(C)C1CCC2(C)CCC3(C)C(CCC4C5(C)CCC(OC(=O)NCCNC(=O)CN6C(=O)SC(=Cc7ccccc7OC)C6=O)C(C)(C)C5CCC43C)C12", "note": "(centres unmarked) [Compound 12e, Lupeol-3-[(1-Ethylenediaminyl)-4]-5-(2-Methoxybenzylidene)-2,4-Thiazolidinedione]", "values": [
      {"measurement": "IC50", "setting": "[1]", "value": "13.8 ± 0.76", "unit": "µM"},
      {"measurement": "IC50", "setting": "[2]", "value": "14.4 ± 0.72", "unit": "µM"},
      {"measurement": "SI (selectivity index)", "setting": "[3]", "value": 4.46},
      {"measurement": "IC50", "setting": "[3]", "value": "12.9 ± 0.52", "unit": "µM"},
      {"measurement": "IC50", "setting": "[4]", "value": "57.7 ± 1.14", "unit": "µM"}
    ]},
    {"smiles": "C=C(C)C1CCC2(C)CCC3(C)C(CCC4C5(C)CCC(OC(=O)NCCNC(=O)CN6C(=O)SC(=Cc7ccc(OC)c(OC)c7OC)C6=O)C(C)(C)C5CCC43C)C12", "note": "(centres unmarked) [Compound 12f, Lupeol-3-[(1-Ethylenediaminyl)-4]-5-(2,3,4-Trimethoxybenzylidene)-2,4-Thiazolidinedione]", "values": [
      {"measurement": "IC50", "setting": "[1]", "value": "9.68 ± 0.52", "unit": "µM"},
      {"measurement": "IC50", "setting": "[2]", "value": "10 ± 0.22", "unit": "µM"},
      {"measurement": "SI (selectivity index)", "setting": "[3]", "value": 3.77},
      {"measurement": "IC50", "setting": "[3]", "value": "9.43 ± 0.78", "unit": "µM"},
      {"measurement": "IC50", "setting": "[4]", "value": "35.53 ± 0.34", "unit": "µM"}
    ]},
    {"smiles": "C=C(C)C1CCC2(C)CCC3(C)C(CCC4C5(C)CCC(OC(=O)NCCNC(=O)CN6C(=O)SC(=Cc7ccco7)C6=O)C(C)(C)C5CCC43C)C12", "note": "(centres unmarked) [Compound 12g, Lupeol-3-[(1-Ethylenediaminyl)-4]-5-(2-Furanylmethylene)-2,4-Thiazolidinedione]", "values": [
      {"measurement": "IC50", "setting": "[1]", "value": "15.7 ± 1.42", "unit": "µM"},
      {"measurement": "IC50", "setting": "[2]", "value": "16.4 ± 0.87", "unit": "µM"},
      {"measurement": "SI (selectivity index)", "setting": "[3]", "value": 4.42},
      {"measurement": "IC50", "setting": "[3]", "value": "14.3 ± 0.56", "unit": "µM"},
      {"measurement": "IC50", "setting": "[4]", "value": "63.2 ± 1.31", "unit": "µM"}
    ]},
    {"smiles": "C=C(C)C1CCC2(C)CCC3(C)C(CCC4C5(C)CCC(OC(=O)NCCNC(=O)CN6C(=O)SC(=Cc7cccs7)C6=O)C(C)(C)C5CCC43C)C12", "note": "(centres unmarked) [Compound 12h, Lupeol-3-[(1-Ethylenediaminyl)-4]-5-(2-Thienylmethylene)-2,4-Thiazolidinedione]", "values": [
      {"measurement": "IC50", "setting": "[1]", "value": "13.4 ± 1.08", "unit": "µM"},
      {"measurement": "IC50", "setting": "[2]", "value": "17.3 ± 1.28", "unit": "µM"},
      {"measurement": "IC50", "setting": "[3]", "value": "18.6 ± 1.49", "unit": "µM"},
      {"measurement": "IC50", "setting": "[4]", "value": "77.5 ± 1.27", "unit": "µM"}
    ]},
    {"smiles": "C=C(C)C1CCC2(C)CCC3(C)C(CCC4C5(C)CCC(OC(=O)NCCNC(=O)CN6C(=O)SC(=CC(C)C)C6=O)C(C)(C)C5CCC43C)C12", "note": "(centres unmarked) [Compound 12i, Lupeol-3-[(1-Ethylenediaminyl)-4]-5-(2-Methylpropylidene)-2,4-Thiazolidinedione]", "values": [
      {"measurement": "IC50", "setting": "[1]", "value": "10.1 ± 0.62", "unit": "µM"},
      {"measurement": "IC50", "setting": "[2]", "value": "8.74 ± 0.34", "unit": "µM"},
      {"measurement": "potency against HepG2 relative to lupeol", "setting": "[3]; HepG2, IC50 lupeol / IC50 compound", "value": "9.9 fold and 9.91 fold"},
      {"measurement": "IC50", "setting": "[3]", "value": "4.4 ± 0.02", "unit": "µM"},
      {"measurement": "cytotoxicity to human hepatic cell LO2 (in words)", "setting": "[4]", "value": "weakly cytotoxic"},
      {"measurement": "IC50", "setting": "[4]", "value": "29.2 ± 0.53", "unit": "µM"},
      {"measurement": "total apoptosis rate", "setting": "[5]; 2 μM", "value": 11.46, "unit": "%"},
      {"measurement": "total apoptosis rate", "setting": "[5]; 4 μM", "value": 22.40, "unit": "%"},
      {"measurement": "total apoptosis rate", "setting": "[5]; 8 μM", "value": 60.50, "unit": "%"},
      {"measurement": "morphological variations after AO/EB staining", "setting": "[6]", "value": "the green fluorescence gradually weakened and turned orange–red"},
      {"measurement": "effect on mitochondrial membrane potential (Δψm)", "setting": "[7]; HepG2, 2, 4 and 8 μM, JC-1 fluorescence microscopy", "value": "significantly reduce Δψm"},
      {"measurement": "monomer rate of JC-1", "setting": "[7]; HepG2, 48 h, 8 μM, blank control 1.95%", "value": 35.8, "unit": "%"},
      {"measurement": "Bax expression", "setting": "[8]; GAPDH internal control", "value": "upregulate"},
      {"measurement": "Bcl-2 expression", "setting": "[8]; GAPDH internal control", "value": "downregulate"},
      {"measurement": "cleaved caspase-7 expression level", "setting": "[8]; dose dependently", "value": "activated"},
      {"measurement": "cleaved caspase-9 expression level", "setting": "[8]; dose dependently", "value": "activated"},
      {"measurement": "phosphorylation level of P-Akt", "setting": "[9]", "value": "reduce the phosphorylation levels"},
      {"measurement": "phosphorylation level of P-PI3K", "setting": "[9]", "value": "reduce the phosphorylation levels"},
      {"measurement": "phosphorylation level of P-mTOR", "setting": "[9]", "value": "reduce the phosphorylation levels"},
      {"measurement": "ROS production", "setting": "[10]", "value": "induces ROS production dose-dependently"}
    ]}
  ]
}
